Test results from patent publication US10700298B2, “OLED display panel and electronic device comprising the same” (SHANGHAI TIANMA AM-OLED CO., LTD., priority 2016, dated 2020).
Converted amounts (≈) assume the structure as drawn.

Test: not given
Settings: in words; material disclosed in CN103108859; cited from earlier work

Row | SMILES | solubility
1 | CC1(C)c2ccccc2-c2ccc(N(c3ccc4c(c3)C3(c5ccccc5-c5ccccc53)c3ccccc3-4)c3ccccc3-c3ccccc3)cc21 | good

Test: Solubility of the hole transporting material in NMP
Format: physicochemical
Settings: N-methylpyrrolidone

Row | solubility in NMP [mg/mL] | SMILES
2 | 35 (≈ 39.4 mM) | Cc1ccc(-c2ccc(N(c3ccc(-c4cccc(C)c4)cc3)c3ccc(-c4ccc(N(c5ccc(-c6ccccc6)cc5)c5ccc(-c6ccc(C)cc6)cc5)c5c4CCCC5)cc3)cc2)cc1 [Example 9]
3 | 15 (≈ 16.4 mM) | Cc1cc(N(c2ccc(-c3ccccc3)cc2)c2ccc(-c3cccc4c3CCCC4)cc2)ccc1-c1ccc(N(c2ccc(-c3ccccc3)cc2)c2ccc(-c3cccc4c3CCCC4)cc2)cc1 [Example 11]
4 | 19 (≈ 19.3 mM) | Cc1cccc(-c2ccc(N(c3ccc(-c4cccc5c4CCCC5)cc3)c3ccc(-c4ccc(N(c5ccc(-c6cccc(C)c6)cc5)c5ccc(-c6cccc7c6CCCC7)cc5)c5c4CCCC5)cc3)cc2)c1 [Example 10]
5 | 1.2 (≈ 1.51 mM) | c1ccc(-c2ccc(N(c3ccc(-c4ccccc4)cc3)c3ccc(-c4ccc(N(c5ccc(-c6ccccc6)cc5)c5ccc(-c6ccccc6)cc5)cc4)cc3)cc2)cc1 [Comparative Example 1, reference compound]
6 | 2.5 (≈ 2.95 mM) | c1ccc(-c2ccc(N(c3ccc(-c4ccccc4)cc3)c3ccc(-c4ccc(N(c5ccc(-c6ccccc6)cc5)c5ccc(-c6ccccc6)cc5)c5c4CCCC5)cc3)cc2)cc1 [Comparative Example 3, reference compound]
7 | 12 (≈ 13.1 mM) | CC(C)c1ccc(-c2ccc(N(c3ccc(-c4ccccc4)cc3)c3ccc(-c4ccc(N(c5ccc(-c6ccccc6)cc5)c5ccc(-c6ccc(C(C)C)cc6)cc5)c(C(C)C)c4)cc3)cc2)cc1 [Example 3]
8 | 25 (≈ 26.8 mM) | Cc1cccc(-c2ccc(N(c3ccc(-c4cc(C)c(N(c5ccc(-c6cccc(C)c6)c(C)c5)c5ccc(-c6cccc(C)c6)c(C)c5)c(C)c4)cc3)c3ccc(-c4cccc(C)c4)c(C)c3)cc2C)c1 [Example 2]
9 | 12 (≈ 13.5 mM) | Cc1cc(N(c2ccc(-c3ccccc3)cc2)c2ccc(-c3ccc(C(C)C)cc3)cc2)ccc1-c1ccc(N(c2ccc(-c3ccccc3)cc2)c2ccc(-c3ccc(C(C)C)cc3)cc2)cc1 [Example 4]
10 | 15 (≈ 17.1 mM) | Cc1cccc(-c2ccc(N(c3ccc(-c4cccc(C)c4)cc3)c3ccc(-c4cc(C)c(N(c5ccc(-c6cccc(C)c6)cc5)c5ccc(-c6cccc(C)c6)cc5)c(C)c4)cc3)cc2)c1 [Example 1]
11 | 21 (≈ 21.4 mM) | Cc1ccccc1-c1ccc(N(c2ccc(-c3ccccc3)cc2)c2ccc(-c3ccc(N(c4ccc(-c5ccccc5)cc4)c4ccc(-c5ccccc5C)c5c4CCCC5)c4c3CCCC4)cc2)c2c1CCCC2 [Example 12]
